According to PubChem BioAssay AID248 (DTP/NCI, 2004):
“And” between values parts separate entries of the source, which are not always exact repeats. Equal entries are not always repeated. Inconclusive results and toxic doses are left out. No stated cut-off is given here; in the data, active means T/C of 150% or more; inactive means T/C below 125%.

System: L1210 leukemia ip in BDF1 mice, survival T/C
Assay: NCI In Vivo Anticancer Drug Screen. Data for tumor model L1210 Leukemia (intraperitoneal) in B6D2F1 (BDF1) mice
Settings: endpoint: mean survival time, higher = longer survival
Summary of the method: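 Tumor was transplanted into mice, which were then dosed with test compound or vehicle alone. Survival was recorded for each group, and the treated figure was expressed relative to the control figure.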

[1] = dose: 100.0 mg/kg/injection, schedule: Q01DX009 (ip), vehicle: saline with Tween-80
[2] = dose: 200.0 mg/kg/injection, schedule: Q01DX009 (ip), vehicle: saline with Tween-80
[3] = dose: 400.0 mg/kg/injection, schedule: Q01DX009 (ip), vehicle: saline with Tween-80
[4] = dose: 100.0 mg/kg/injection, schedule: Q01DX009 (ip), vehicle: Klucel (hydroxypropylcellulose) (HPC)
[5] = dose: 100.0 mg/kg/injection, schedule: Q04DX003 (ip), vehicle: Klucel (hydroxypropylcellulose) (HPC)
[6] = dose: 200.0 mg/kg/injection, schedule: Q01DX009 (ip), vehicle: Klucel (hydroxypropylcellulose) (HPC)
[7] = dose: 200.0 mg/kg/injection, schedule: Q04DX003 (ip), vehicle: Klucel (hydroxypropylcellulose) (HPC)
[8] = dose: 400.0 mg/kg/injection, schedule: Q01DX009 (ip), vehicle: Klucel (hydroxypropylcellulose) (HPC)
[9] = dose: 100.0 mg/kg/injection, schedule: Q04DX003 (ip), vehicle: saline
[10] = dose: 200.0 mg/kg/injection, schedule: Q04DX003 (ip), vehicle: saline
[11] = dose: 400.0 mg/kg/injection, schedule: Q04DX003 (ip), vehicle: saline
[12] = dose: 100.0 mg/kg/injection, schedule: Q01DX009 (ip), vehicle: saline
[13] = dose: 100.0 mg/kg/injection, schedule: Q01DX001 (ip), vehicle: saline
[14] = dose: 200.0 mg/kg/injection, schedule: Q01DX001 (ip), vehicle: saline
[15] = dose: 400.0 mg/kg/injection, schedule: Q01DX001 (ip), vehicle: saline
[16] = dose: 100.0 mg/kg/injection, schedule: Q04DX003 (ip), vehicle: saline with Tween-80
[17] = dose: 200.0 mg/kg/injection, schedule: Q04DX003 (ip), vehicle: saline with Tween-80
[18] = dose: 400.0 mg/kg/injection, schedule: Q04DX003 (ip), vehicle: saline with Tween-80

Measured: T/C

Clc1ccc(NP(Br)(c2ccccc2)(c2ccccc2)c2ccccc2)cc1
inactive: dose: 75.0 mg/kg/injection, schedule: Q01DX001 (ip), vehicle: other 107 % of control | dose: 150.0 mg/kg/injection, schedule: Q01DX001 (ip), vehicle: other 104 % of control | dose: 300.0 mg/kg/injection, schedule: Q01DX001 (ip), vehicle: other 101 % of control

CC1OC(n2ncc(=O)[nH]c2=O)C2OC(C)(C)OC2C1=O (centres undefined)
inactive: dose: 12.5 mg/kg/injection, schedule: Q01DX005 (ip), vehicle: distilled water + Tween-80 108 % of control | dose: 25.0 mg/kg/injection, schedule: Q01DX005 (ip), vehicle: distilled water + Tween-80 95 % of control | dose: 50.0 mg/kg/injection, schedule: Q01DX005 (ip), vehicle: distilled water + Tween-80 92 % of control | dose: 100.0 mg/kg/injection, schedule: Q01DX005 (ip), vehicle: distilled water + Tween-80 95 % of control | dose: 200.0 mg/kg/injection, schedule: Q01DX005 (ip), vehicle: distilled water + Tween-80 97 % of control

O=C1NC(=O)C(c2ccccn2)N1 (centres undefined)
inactive: [1] 91 % of control | [2] 91 % of control | [3] 94 % of control

CC(=O)CC(=O)Nc1cc(C)c(NC(=O)CC(C)=O)cc1C
inactive: [4] 95 % of control | [5] 98 % of control | [6] 93 % of control | [7] 96 % of control | [8] 103 % of control | dose: 400.0 mg/kg/injection, schedule: Q04DX003 (ip), vehicle: Klucel (hydroxypropylcellulose) (HPC) 98 % of control

Oc1ccccc1C=Nc1ccccc1O.[Zn+2]
inactive: dose: 100.0 mg/kg/injection, schedule: Q01DX001 (ip), vehicle: other 94 % of control | dose: 200.0 mg/kg/injection, schedule: Q01DX001 (ip), vehicle: other 91 % of control | dose: 400.0 mg/kg/injection, schedule: Q01DX001 (ip), vehicle: other 91 % of control

OC(c1cc(Nc2ccc(Cl)cc2)nc2ccccc12)C1CCCCN1 (centres undefined)
inactive: [5] 95 % of control | [7] 101 % of control

S=C([S-])N1CCN(c2ccccc2)CC1.S=C([S-])N1CCN(c2ccccc2)CC1.[Zn]
inactive: [9] 89 % of control | [10] 95 % of control and 88 % of control | [11] 90 % of control

COc1ccccc1[P+](CO)(c1ccccc1OC)c1ccccc1OC
inactive: [12] 97 % of control | [9] 103 % of control | dose: 200.0 mg/kg/injection, schedule: Q01DX009 (ip), vehicle: saline 92 % of control | [10] 97 % of control | dose: 400.0 mg/kg/injection, schedule: Q01DX009 (ip), vehicle: saline 93 % of control | [11] 97 % of control

CCOC(=O)C(C#N)=C1CCN(Cc2ccccc2)CC1
inactive: [13] 96 % of control | [14] 99 % of control | [15] 105 % of control

CCCCN(C)CCNc1cc(C)nc(/N=C(\N)Nc2ccc(Cl)c(Cl)c2)n1
inactive: dose: 18.75 mg/kg/injection, schedule: Q01DX009 (ip), vehicle: Klucel (hydroxypropylcellulose) (HPC) 103 % of control | dose: 37.5 mg/kg/injection, schedule: Q01DX009 (ip), vehicle: Klucel (hydroxypropylcellulose) (HPC) 97 % of control

CC(OC(=O)CC(=O)CCl)c1ccccc1 (centres undefined)
inactive: dose: 100.0 mg/kg/injection, schedule: Q04DX002 (ip), vehicle: Klucel (hydroxypropylcellulose) (HPC) 102 % of control | dose: 200.0 mg/kg/injection, schedule: Q04DX002 (ip), vehicle: Klucel (hydroxypropylcellulose) (HPC) 98 % of control | dose: 400.0 mg/kg/injection, schedule: Q04DX002 (ip), vehicle: Klucel (hydroxypropylcellulose) (HPC) 87 % of control

C/C=N\NC(N)=O
inactive: dose: 25.0 mg/kg/injection, schedule: Q04DX003 (ip), vehicle: saline 94 % of control | dose: 50.0 mg/kg/injection, schedule: Q04DX003 (ip), vehicle: saline 100 % of control

NCCCCC(N)C(=O)NC1C(CO)OC(n2cnc3c(N)ncnc32)C1O (centres undefined)
inactive: [13] 101 % of control | [14] 105 % of control | [15] 101 % of control

CCCCCCCCC(C(=O)c1ccccc1)=C(C(F)(F)F)C(F)(F)F
inactive: dose: 25.0 mg/kg/injection, schedule: Q01DX009 (ip), vehicle: saline 100 % of control | dose: 50.0 mg/kg/injection, schedule: Q01DX009 (ip), vehicle: saline 96 % of control | [12] 91 % of control | [16] 86 % of control | [17] 90 % of control | [18] 95 % of control

CC1C(OC(=O)Cc2ccccc2)=CCC2C1(C)CCC1C2(C)CCC2(C)C3CC(C)(C)CCC3(C)CCC12C (centres undefined)
inactive: [13] 98 % of control | [14] 104 % of control | [15] 104 % of control

O=P(Cc1ccccc1)(Oc1ccccc1)Oc1ccccc1
inactive: [4] 91 % of control | [6] 94 % of control | [8] 91 % of control

COc1cc(CCl)c(OC)cc1Cl
inactive: [1] 100 % of control | [16] 99 % of control | [2] 106 % of control | [17] 91 % of control | [18] 99 % of control

CCN1/C(=C/C(C)=C/c2[se]c3ccccc3[n+]2CC)[Se]c2ccc(OC)cc21
inactive: dose: 5.0 mg/kg/injection, schedule: Q01DX001 (ip), vehicle: saline 105 % of control | dose: 10.0 mg/kg/injection, schedule: Q01DX001 (ip), vehicle: saline 100 % of control | dose: 20.0 mg/kg/injection, schedule: Q01DX001 (ip), vehicle: saline 97 % of control | dose: 40.0 mg/kg/injection, schedule: Q01DX001 (ip), vehicle: saline 100 % of control

CCCCCCC(C)S(=O)(=O)c1ccc(C)cc1 (centres undefined)
inactive: [13] 87 % of control and 94 % of control | [14] 90 % of control and 91 % of control | [15] 94 % of control

Cc1ccc(NC(=O)COc2ccc(Cl)cc2Cl)c(C)c1
inactive: [1] 104 % of control | [16] 89 % of control | [2] 101 % of control | [17] 91 % of control | [3] 96 % of control | [18] 91 % of control

C=CCOC(=O)c1ccco1
inactive: dose: 25.0 mg/kg/injection, schedule: Q01DX009 (ip), vehicle: Klucel (hydroxypropylcellulose) (HPC) 98 % of control | dose: 50.0 mg/kg/injection, schedule: Q01DX009 (ip), vehicle: Klucel (hydroxypropylcellulose) (HPC) 106 % of control | [4] 94 % of control and 96 % of control

Cc1ccc(C)c2c1C1=C(CCCC1)S2(=O)=O
inactive: [13] 96 % of control | [14] 102 % of control | [15] 104 % of control

O=C(O)c1ccc(NCc2cccc(N=Cc3ccccc3)c2)cc1
inactive: dose: 100.0 mg/kg/injection, schedule: Q01DX001 (ip), vehicle: saline with Tween-80 93 % of control | dose: 200.0 mg/kg/injection, schedule: Q01DX001 (ip), vehicle: saline with Tween-80 93 % of control | dose: 400.0 mg/kg/injection, schedule: Q01DX001 (ip), vehicle: saline with Tween-80 103 % of control

Cc1cccc(C)c1NC(=O)c1ccccc1Cl
inactive: [1] 104 % of control | [2] 97 % of control | [3] 104 % of control

O=C1c2ccccc2-c2cc(Br)cc(Br)c21
inactive: dose: 100.0 mg/kg/injection, schedule: Q01DX001 (ip), vehicle: carboxymethylcellulose (CMC) 93 % of control | dose: 200.0 mg/kg/injection, schedule: Q01DX001 (ip), vehicle: carboxymethylcellulose (CMC) 98 % of control | dose: 400.0 mg/kg/injection, schedule: Q01DX001 (ip), vehicle: carboxymethylcellulose (CMC) 98 % of control
